Test results from patent US20260373149A1, “MIXED LINEAGE KINASE DOMAIN LIKE PSEUDOKINASE (MLKL) ACTIVATORS” (Trustees of Tufts College, priority 2022, published 2026).
Changes are numbered by the printed parent chain.

Legend:
Format in all cases: cell-based
[1] = target: T1, M272W mutant of MLKL (Mus musculus, UniProt Q9D2Y4, M272W); experiment: Viability of Mlkl-/- MEFs expressing M272W mutant of mouse MLKL-FLAG (CellTiter-Glo); details: 5 μM; 50 ng/ml Dox 6 hr, then 24 hr; FIG. 6
T1 sequence (Q9D2Y4 1-472 M272W): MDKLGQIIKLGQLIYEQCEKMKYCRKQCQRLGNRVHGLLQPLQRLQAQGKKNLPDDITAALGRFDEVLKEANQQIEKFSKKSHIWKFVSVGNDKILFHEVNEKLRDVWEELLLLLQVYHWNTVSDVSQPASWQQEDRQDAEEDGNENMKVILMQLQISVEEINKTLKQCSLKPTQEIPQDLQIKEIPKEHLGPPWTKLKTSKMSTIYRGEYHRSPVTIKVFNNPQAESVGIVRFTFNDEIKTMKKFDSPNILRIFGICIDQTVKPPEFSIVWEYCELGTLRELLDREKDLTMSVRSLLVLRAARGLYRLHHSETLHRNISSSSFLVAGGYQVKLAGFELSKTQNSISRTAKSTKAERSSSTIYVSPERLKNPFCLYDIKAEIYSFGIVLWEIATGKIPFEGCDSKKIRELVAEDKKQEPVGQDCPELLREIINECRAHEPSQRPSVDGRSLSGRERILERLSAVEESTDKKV
Description: (§1) Plots show cell viability (%) versus MLKL mutant expressed. […] Cells conditionally expressing wild type and mutants of MLKL have been generated. M272W mutant of MLKL is active but predicted not to bind to MLKL activators. S345A/S347A mutant of MLKL lacks RIPK3 phosphorylation sites. Cells were treated with 50 ng/ml of Dox for 6 hr followed by MLKL activators (left panels) or TNFα/IDN6556 (right panels). The latter combination is a canonical inducer of necroptosis through RIPK3 activation. 5 μM ALD-6-85 and SS-1-127 were used in top and bottom panels, respectively.
(§2) The activity of ALD-6-85 was tested in the cells expressing either wild type MLKL or mutant expressing a bulky Trp residue in place of M272 gatekeeper residue. This mutation is expected to disrupt binding of the drug to MLKL. […] To ensure that observed reduction in killing is not due to the intrinsically lower pro-death activity of M272W mutant, cells were also stimulated with TNF+IDN, inducing necroptosis through a canonical TNFR1-RIPK1-RIPK3-MLKL pathway. […] We also generated MEFs expressing S345A, S347A double mutant of mouse MLKL.

[2] = tested on: transformed mouse embryonic fibroblasts with genetic deletions of RIPK3 and MLKL genes; experiment: Viability of transformed mouse embryonic fibroblasts with genetic deletions of RIPK3 and MLKL genes; details: MEFs with genetic deletions of RIPK3 and MLKL; FIG. 3
Description: Viability of transformed mouse embryonic fibroblasts with genetic deletions of RIPK3 and MLKL genes and treated with SS-1-127 are shown. Affinities of select MLKL activators against recombinant human RIPK1, RIPK3, and MLKL were determined by DiscoveRx.
The compounds described herein are capable of directly activating the downstream executioner of necroptosis, MLKL, thus bypassing a requirement for RIPK3 (FIG. 2).

[3] = target: T2, E239Q mutant of mouse MLKL (Mus musculus, UniProt Q9D2Y4, E239Q); experiment: Viability of Mlkl-/- MEFs expressing wild type or E239Q mutant of mouse MLKL-FLAG (CellTiter-Glo); details: E239Q vs wild type mouse MLKL; 50 ng/ml Dox 6 hr, then compound 24 hr; FIG. 7
T2 construct: expressed in transfected cells; host or cells: Mlkl-/- mouse embryonic fibroblasts (MEFs), lentiviral, doxycycline-inducible
T2 sequence (Q9D2Y4 1-472 E239Q): T1 sequence (Q9D2Y4 1-472 M272W) with E239Q, W272M
Description: Mlkl^−/− mouse embryonic fibroblasts (MEFs) were stably infected with lentiviral vector encoding wild type and E239Q mutant of mouse MLKL-FLAG under the control of the Doxocyclin (Dox)-inducible promoter. […] After 24 hr, cell viability at the end of treatment was determined using CellTiter-Glo Viability assay (Promega).

[4] = target: T3, S345A/S347A mutant of MLKL (Mus musculus, UniProt Q9D2Y4, S345A/S347A); experiment: Viability of Mlkl-/- MEFs expressing S345A/S347A mutant of mouse MLKL-FLAG (CellTiter-Glo); details: 5 μM; 50 ng/ml Dox 6 hr, then 24 hr; FIG. 6
T3 sequence (Q9D2Y4 1-472 S345A/S347A): T1 sequence (Q9D2Y4 1-472 M272W) with W272M, S345A, S347A
Description: as §1, §2

Row | SMILES | Death in cells expressing M272W MLKL compared to wild type [1] | Cell death induced by SS-1-127: dependence on MLKL and RIPK3 [2] | Activity / cell death with E239Q mutation compared to wild type MLKL [3] | Effect of S345A, S347A double mutation on killing by SS-1-127 [4]
1 | CCN(CC)CCOc1ccc(Nc2ncc3cc(-c4ccc(O)c([N+](=O)[O-])c4)c(=O)n(C)c3n2)cc1 [ALD-6-85] | induces reduced death in the cells expressing M272W MLKL compared to wild type protein |  |  | 
2 | CCN(CC)CCOc1ccc(Nc2ncc3cc(-c4ccc(O)c(C#N)c4)c(=O)n(C)c3n2)cc1 [SS-1-127, 5-(2-((4-(2-(Diethylamino)ethoxy)phenyl)amino)-8-methyl-7-oxo-7,8-dihydropyrido[2,3-d]pyrimidin-6-yl)-2-hydroxybenzonitrile] |  | dependent on MLKL expression and independent from RIPK3 | much improved activity when combined with E239Q mutation compared to wild type MLKL | minor effect on killing
